Several values for one entry are separate records, joined by “and”; a condition that tells them apart may be missing. Equal entries are not always repeated. Toxic doses and inconclusive results are not listed. Rule for the calls: active = survival T/C of 150% or more; inactive = T/C below 125% in these data.
Tested on: CD2F1 mice, L1210 leukemia ip, survival T/C
Assay: NCI In Vivo Anticancer Drug Screen. Data for tumor model L1210 Leukemia (intraperitoneal) in CD2F1 (CDF1) mice
Conditions: higher = longer survival
Method in brief: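 Each value reflects a quotient of treated over vehicle control outcomes in mice with a transplanted tumor.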

[1] = endpoint: mean survival time, dose: 100.0 mg/kg/injection, schedule: Q01DX001 (ip), vehicle: saline with Tween-80
[2] = endpoint: mean survival time, dose: 200.0 mg/kg/injection, schedule: Q01DX001 (ip), vehicle: saline with Tween-80
[3] = endpoint: mean survival time, dose: 200.0 mg/kg/injection, schedule: Q04DX002 (ip), vehicle: saline with Tween-80
[4] = endpoint: mean survival time, dose: 400.0 mg/kg/injection, schedule: Q01DX001 (ip), vehicle: saline with Tween-80
[5] = endpoint: mean survival time, dose: 100.0 mg/kg/injection, schedule: Q01DX009 (ip), vehicle: saline with Tween-80
[6] = endpoint: mean survival time, dose: 100.0 mg/kg/injection, schedule: Q04DX003 (ip), vehicle: saline with Tween-80
[7] = endpoint: mean survival time, dose: 200.0 mg/kg/injection, schedule: Q01DX009 (ip), vehicle: saline with Tween-80
[8] = endpoint: mean survival time, dose: 200.0 mg/kg/injection, schedule: Q04DX003 (ip), vehicle: saline with Tween-80
[9] = endpoint: mean survival time, dose: 400.0 mg/kg/injection, schedule: Q01DX009 (ip), vehicle: saline with Tween-80
[10] = endpoint: mean survival time, dose: 400.0 mg/kg/injection, schedule: Q04DX003 (ip), vehicle: saline with Tween-80
[11] = endpoint: mean survival time, dose: 25.0 mg/kg/injection, schedule: Q01DX009 (ip), vehicle: saline with Tween-80
[12] = endpoint: mean survival time, dose: 50.0 mg/kg/injection, schedule: Q01DX009 (ip), vehicle: saline with Tween-80

Measured: T/C

CO[C@H](/C(C)=C/C=C/C(C)=C/c1coc(C)n1)[C@H](C)[C@H]1C[C@@H](O)[C@@]2(C)O[C@H]2/C=C/[C@@H](C)[C@@H]2C[C@@H](CC(=O)O2)C[C@H]2O[C@@H]2C(=O)O1
inactive: endpoint: median survival time, dose: 0.5 mg/kg/injection, schedule: Q01DX009 (ip), vehicle: Klucel (hydroxypropylcellulose) (HPC) 112 % of control | endpoint: median survival time, dose: 20.0 micrograms/kg/injection, schedule: Q01DX009 (ip), vehicle: Klucel (hydroxypropylcellulose) (HPC) 114 % of control | endpoint: median survival time, dose: 40.0 micrograms/kg/injection, schedule: Q01DX009 (ip), vehicle: Klucel (hydroxypropylcellulose) (HPC) 123 % of control and 104 % of control | endpoint: median survival time, dose: 80.0 micrograms/kg/injection, schedule: Q01DX009 (ip), vehicle: Klucel (hydroxypropylcellulose) (HPC) 116 % of control | endpoint: median survival time, dose: 160.0 micrograms/kg/injection, schedule: Q01DX009 (ip), vehicle: Klucel (hydroxypropylcellulose) (HPC) 114 % of control

COc1ccccc1N=Nc1c(O)n(-c2ccc(Cl)cc2)c(=S)n(-c2ccccc2)c1=O
inactive: [1] 97 % of control | endpoint: mean survival time, dose: 100.0 mg/kg/injection, schedule: Q04DX002 (ip), vehicle: saline with Tween-80 98 % of control | [2] 97 % of control | [3] 94 % of control | [4] 103 % of control | endpoint: mean survival time, dose: 400.0 mg/kg/injection, schedule: Q04DX002 (ip), vehicle: saline with Tween-80 102 % of control

CCOC(=O)/C(C#N)=N\O
inactive: endpoint: mean survival time, dose: 100.0 mg/kg/injection, schedule: Q01DX001 (ip), vehicle: saline 102 % of control

O=C(CCCl)Oc1ccc(Br)cc1
inactive: [5] 94 % of control | [6] 98 % of control | [7] 96 % of control | [8] 100 % of control | [9] 102 % of control | [10] 96 % of control

CC(=O)OC1CCC2(C)C(CCC3C2CCC2(C)C(C(C)=O)CCC32)C1 (stereo unspecified)
inactive: endpoint: mean survival time, dose: 100.0 mg/kg/injection, schedule: Q04DX003 (sc), vehicle: steriod suspending solution 103 % of control | endpoint: mean survival time, dose: 200.0 mg/kg/injection, schedule: Q04DX003 (sc), vehicle: steriod suspending solution 97 % of control | endpoint: mean survival time, dose: 400.0 mg/kg/injection, schedule: Q04DX003 (sc), vehicle: steriod suspending solution 107 % of control

CCOC(=O)Oc1c(OC)cc(C(=O)O[C@@H]2C[C@@H]3CN4CCc5c([nH]c6cc(OC)ccc56)[C@H]4C[C@@H]3[C@H](C(=O)OC)[C@H]2OC)cc1OC
inactive: [11] 104 % of control | [5] 94 % of control | [6] 103 % of control

CCOC(=O)c1ccc(NC(=O)NC)cc1
inactive: [5] 93 % of control | [6] 92 % of control | [7] 93 % of control | [8] 93 % of control | [9] 93 % of control | [10] 101 % of control

Cc1ccoc1N(O)c1occc1C
inactive: [1] 93 % of control | [2] 101 % of control | [4] 95 % of control

CCCCN(CCCC)C1=C(Cl)C(=O)c2ccccc2C1=O
inactive: endpoint: mean survival time, dose: 25.0 mg/kg/injection, schedule: Q04DX003 (ip), vehicle: saline with Tween-80 98 % of control | endpoint: mean survival time, dose: 50.0 mg/kg/injection, schedule: Q04DX003 (ip), vehicle: saline with Tween-80 98 % of control | [6] 91 % of control

O=C(C[P+](c1ccccc1)(c1ccccc1)c1ccccc1)c1ccccc1
inactive: endpoint: mean survival time, dose: 25.0 mg/kg/injection, schedule: Q01DX001 (ip), vehicle: Klucel (hydroxypropylcellulose) (HPC) 107 % of control | endpoint: mean survival time, dose: 50.0 mg/kg/injection, schedule: Q01DX001 (ip), vehicle: Klucel (hydroxypropylcellulose) (HPC) 107 % of control | endpoint: mean survival time, dose: 100.0 mg/kg/injection, schedule: Q01DX001 (ip), vehicle: Klucel (hydroxypropylcellulose) (HPC) 96 % of control | [5] 103 % of control | [7] 97 % of control | [9] 103 % of control

O=C(O)C(C(=O)O)=C(C(=O)c1ccccc1)c1ccccc1
inactive: endpoint: mean survival time, dose: 100.0 mg/kg/injection, schedule: Q01DX009 (ip), vehicle: other 95 % of control | endpoint: mean survival time, dose: 200.0 mg/kg/injection, schedule: Q01DX009 (ip), vehicle: other 100 % of control | endpoint: mean survival time, dose: 400.0 mg/kg/injection, schedule: Q01DX009 (ip), vehicle: other 95 % of control

C(CCSC1=NCCN1)CCSC1=NCCN1
inactive: endpoint: mean survival time, dose: 25.0 mg/kg/injection, schedule: Q01DX009 (ip), vehicle: saline 97 % of control | endpoint: mean survival time, dose: 50.0 mg/kg/injection, schedule: Q01DX009 (ip), vehicle: saline 103 % of control | endpoint: mean survival time, dose: 100.0 mg/kg/injection, schedule: Q01DX009 (ip), vehicle: saline 100 % of control

OC1CC2CC1C1C=CCC21 (stereo unspecified)
inactive: [12] 95 % of control | [5] 98 % of control | [6] 93 % of control | [7] 93 % of control | [8] 93 % of control

CC1CC(C)(C)NC(c2ccccc2)O1 (stereo unspecified)
inactive: [6] 94 % of control | [8] 94 % of control | [10] 102 % of control

CC(=O)NC(C=O)OCC=O (stereo unspecified)
inactive: endpoint: median survival time, dose: 6.0 mg/kg/injection, schedule: Q01DX009 (ip), vehicle: water 100 % of control | endpoint: median survival time, dose: 6.25 mg/kg/injection, schedule: Q01DX009 (ip), vehicle: water 105 % of control | endpoint: median survival time, dose: 12.0 mg/kg/injection, schedule: Q01DX009 (ip), vehicle: water 103 % of control | endpoint: median survival time, dose: 12.5 mg/kg/injection, schedule: Q01DX009 (ip), vehicle: water 105 % of control | endpoint: median survival time, dose: 25.0 mg/kg/injection, schedule: Q01DX009 (ip), vehicle: water 105 % of control and 108 % of control | endpoint: median survival time, dose: 50.0 mg/kg/injection, schedule: Q01DX009 (ip), vehicle: water 102 % of control and 108 % of control | endpoint: median survival time, dose: 100.0 mg/kg/injection, schedule: Q01DX009 (ip), vehicle: water 116 % of control and 111 % of control | endpoint: median survival time, dose: 200.0 mg/kg/injection, schedule: Q01DX009 (ip), vehicle: water 115 % of control and 108 % of control

O=C(CCOP(=O)(N(CCCl)CCCl)N1CC1)OCc1ccccc1 (stereo unspecified)
inactive: endpoint: mean survival time, dose: 25.0 mg/kg/injection, schedule: Q01DX009 (ip), vehicle: Klucel (hydroxypropylcellulose) (HPC) 97 % of control | endpoint: mean survival time, dose: 50.0 mg/kg/injection, schedule: Q01DX009 (ip), vehicle: Klucel (hydroxypropylcellulose) (HPC) 94 % of control | endpoint: mean survival time, dose: 100.0 mg/kg/injection, schedule: Q01DX009 (ip), vehicle: Klucel (hydroxypropylcellulose) (HPC) 97 % of control | endpoint: mean survival time, dose: 125.0 mg/kg/injection, schedule: Q01DX001 (ip), vehicle: Klucel (hydroxypropylcellulose) (HPC) 98 % of control | endpoint: mean survival time, dose: 200.0 mg/kg/injection, schedule: Q01DX009 (ip), vehicle: Klucel (hydroxypropylcellulose) (HPC) 97 % of control | endpoint: mean survival time, dose: 250.0 mg/kg/injection, schedule: Q01DX001 (ip), vehicle: Klucel (hydroxypropylcellulose) (HPC) 107 % of control | endpoint: mean survival time, dose: 400.0 mg/kg/injection, schedule: Q01DX009 (ip), vehicle: Klucel (hydroxypropylcellulose) (HPC) 107 % of control | endpoint: mean survival time, dose: 500.0 mg/kg/injection, schedule: Q01DX001 (ip), vehicle: Klucel (hydroxypropylcellulose) (HPC) 103 % of control | endpoint: mean survival time, dose: 1000.0 mg/kg/injection, schedule: Q01DX001 (ip), vehicle: Klucel (hydroxypropylcellulose) (HPC) 95 % of control

O=S(=O)(O)SCC1=NCCCCN1
inactive: [6] 101 % of control

CCCCC(/C=N/N=C/C(CC)CCCC)CC (stereo unspecified)
inactive: endpoint: mean survival time, dose: 6.25 mg/kg/injection, schedule: Q01DX005 (ip), vehicle: saline with Tween-80 92 % of control | endpoint: mean survival time, dose: 6.25 mg/kg/injection, schedule: Q01DX009 (ip), vehicle: saline with Tween-80 91 % of control | endpoint: mean survival time, dose: 6.25 mg/kg/injection, schedule: Q04DX002 (ip), vehicle: saline 98 % of control | endpoint: mean survival time, dose: 12.5 mg/kg/injection, schedule: Q01DX005 (ip), vehicle: saline with Tween-80 92 % of control | endpoint: mean survival time, dose: 12.5 mg/kg/injection, schedule: Q01DX009 (ip), vehicle: saline with Tween-80 91 % of control | endpoint: mean survival time, dose: 12.5 mg/kg/injection, schedule: Q04DX002 (ip), vehicle: saline 103 % of control | endpoint: mean survival time, dose: 25.0 mg/kg/injection, schedule: Q01DX005 (ip), vehicle: saline with Tween-80 89 % of control | [11] 95 % of control | endpoint: mean survival time, dose: 25.0 mg/kg/injection, schedule: Q04DX002 (ip), vehicle: saline 103 % of control | endpoint: mean survival time, dose: 50.0 mg/kg/injection, schedule: Q01DX005 (ip), vehicle: saline with Tween-80 92 % of control | [12] 91 % of control | endpoint: mean survival time, dose: 50.0 mg/kg/injection, schedule: Q04DX002 (ip), vehicle: saline with Tween-80 95 % of control | endpoint: mean survival time, dose: 50.0 mg/kg/injection, schedule: Q04DX002 (ip), vehicle: saline 106 % of control | [3] 88 % of control

O=C(/C=C\c1ccc(/C=C/C(=O)Nc2cccc(C3=NCCCN3)c2)cc1)Nc1cccc(C2=NCCCN2)c1
inactive: endpoint: median survival time, dose: 20.0 mg/kg/injection, schedule: Q01DX009 (ip), vehicle: Klucel (hydroxypropylcellulose) (HPC) 113 % of control
active: endpoint: median survival time, dose: 5.0 mg/kg/injection, schedule: Q01DX009 (ip), vehicle: Klucel (hydroxypropylcellulose) (HPC) 175 % of control and 196 % of control | endpoint: median survival time, dose: 10.0 mg/kg/injection, schedule: Q01DX009 (ip), vehicle: Klucel (hydroxypropylcellulose) (HPC) 185 % of control and 250 % of control
